# Laboratory results: article PMC11184559, “Identification and Validation of Compounds Targeting Leishmania major Leucyl-Aminopeptidase M17” (ACS Infectious Diseases, 2024)
# Like-named read-outs stand apart in the source and are kept apart here.
# How the values were obtained:
# [1] = system: L. donovani intracellular amastigotes; assay: Leishmania donovani intracellular (intramacrophage) assay, single concentration; assay type: cell-based; settings: 96 h, intracellular amastigotes in macrophages, Hoechst imaging; for Inhibition of L. donovani proliferation (%): 50 μM; for inhibition at 50 µM: Leishmania donovani, Macrophage, read-out: Inhibition of L. donovani proliferation (%)
# Description: The effect of the compounds selected as inhibitors of rLmLAP on the proliferation of L. donovani amastigotes was evaluated at a concentration of 50 μM. Macrophage cultures (ECACC, catalog number: 88081201) were used as host cells. Parasites were incubated with 4.27× 10^7 macrophages, at a multiplicity of infection (MOI) of 5, at 37 °C with 5% CO2, overnight in DMEM medium supplemented with 4.5 g/L glucose and glutamine and 10% FBS, in a Millicell HY T-600 three-layer culture flask (Merck Millipore, Solna, Sweden). […] Macrophages were incubated for another 24 h in the above conditions with 133 μL of fresh DMEM medium prewarmed at 37 °C and supplemented with 10% FBS to obtain a high count of intracellular amastigotes.
# Forty-two hours after macrophage infection, compounds (50 μM, 250 nL in DMSO) were dispensed using LabCyte ECHO into each well of 384-well dark flat bottom plates (Corning, New York, USA). The plates were incubated at 37 °C, 5% CO2, for 4 h (without compounds, with DMSO, to determine the initial level of infection) and for 96 h (with and without compounds).
# [2] = system: LmjF.33.2570 (metallo-peptidase, Clan MF, Family M17); assay: Isothermal TPP (iTPP) thermal stabilization, LmjF.33.2570; assay type: binding, Leishmania major; settings: L. major promastigote lysate, 47 °C, compound at 10× EC50 vs DMSO
# Description: (§1) Cell lysates were obtained as detailed above. Isothermal TPP assays were performed as previously described[29] but here lysates were incubated at two temperatures: 28 and 47 °C. The first temperature (28 °C) acts as a control temperature at which the protein levels are not altered by the presence of the test compound. The second temperature (47 °C) is the Leishmania spp. median Tm (melting temperature or temperature 50%) according to our interim data. […] These samples were aliquoted and submitted to a temperature shock at the designated temperature for 3 min, then 3 min at room temperature, and finally 3 min on ice. The soluble part was isolated by ultracentrifugation (100,000g, 20 min, 4 °C).
# (§2) All aspects of sample processing, TMT-labeling, fractionation by HPLC into 10 fractions, LC-MS/MS, and protein identification and quantitation were described previously.[28],[68] Proteins with less than three peptides and those with increased stability at 28 °C were disregarded.
# (§3) Proteins were identified by searching the MS and MS/MS data for the peptides against L. major strain Friedlin (TriTryp version 61, tritrypdb.org) using MaxQuant (http://maxquant.org/, version 2.1.4.0). All proteomics data sets have been deposited to the ProteomeXchange Consortium via the PRIDE[69] partner repository with the identifier PXD00000. Data were analyzed with Perseus v 1.6.15.[70] The reporter intensities of each protein were extracted and normalized to the control temperature reporter intensity (28 °C), then these normalized values were used to calculate the log2 transformed fold-changes (FC) of […] samples. Proteins stabilized (log2 FC > 1 in both replicates) were selected as putative hits.
# [3] = system: parental (WT) L. major promastigotes; assay: Drug sensitivity assay (resazurin), parental L. major promastigotes; assay type: cell-based
# Description: L. major promastigotes were cultured in HOMEM (Gibco) supplemented with 10% heat inactivated FBS at 28 °C.
# L. major promastigotes were seeded in 96-well plates at 5 × 10^4/mL, exposed to 2-fold serial dilutions of test compounds, and incubated at 28 °C for 72 h. Resazurin was, then, added to each well to a final concentration of 50 μM, and fluorescence was measured after 2–3 h (excitation of 528 nm and emission of 590 nm). The EC50 was calculated by processing the collected data by GRAFIT (version 5.0.4, Erithacus Software) and fitting them to the following two-parameter equation: [drawing 6] 6 where [I] is the inhibitor concentration, and m is the slope. Experiments were performed on at least three independent biological replicates. Data are presented as the weighted mean ± standard deviation.
# [4] = system: LmjF.35.1670 (60S ribosomal protein L26, putative); assay: Isothermal TPP (iTPP) thermal stabilization, LmjF.35.1670; assay type: binding, Leishmania major; settings: L. major promastigote lysate, 47 °C, compound at 10× EC50 vs DMSO
# Description: as §1, §2, §3
# [5] = system: LmjF.11.0630 (metallo-peptidase, Clan MF, Family M17); assay: Isothermal TPP (iTPP) thermal stabilization, LmjF.11.0630; assay type: binding, Leishmania major; settings: L. major promastigote lysate, 47 °C, compound at 10× EC50 vs DMSO
# Description: as §1, §2, §3
# [6] = Leishmania major; value of the specific curve shown in Figure 4; read-out: EC50 (WT), representative curve
SMILES,Inhibition of L. donovani proliferation (%) [1] [%],inhibition at 50 µM [1] [%],"Enrichment (log2) replica A, LmjF.33.2570 [2] [log2]","Enrichment (log2) replica B, LmjF.33.2570 [2] [log2]","EC50 ([3]; Leishmania major, 72 h, resazurin; weighted mean ± SD (n = 5); read-out: EC50 (weighted mean), parental (WT) L. major promastigotes) [nM]","EC50 [3, 6] [nM]","Enrichment (log2) replica A, LmjF.35.1670 [4] [log2]","Enrichment (log2) replica B, LmjF.35.1670 [4] [log2]","Enrichment (log2) replica A, LmjF.11.0630 [5] [log2]","Enrichment (log2) replica B, LmjF.11.0630 [5] [log2]","EC50 ([3]; Leishmania major; 72 h, resazurin; weighted mean ± SD (n = 5); read-out: EC50 (weighted mean), parental (WT) L. major promastigotes) [nM]"
COc1ccc(Cc2c(N)nc(-c3ccccn3)nc2N)cc1 [DDD00057570],98.4 ± 2.9,98 ± 2.9,1.38,1.17,1800 ± 200,1100 ± 200,1.36,1.64,1.47,1.34,
O=C(c1cccs1)N(CCCn1ccnc1)c1nc2ccccc2s1 [DDD00097924],77.8 ± 3.1,78,1.97,1.76,,1830 ± 200,1.71,1.97,2.19,1.99,3000 ± 200
